Data set [1] can be described thus: Cytotoxicity against KB cells (sulforhodamine B staining). Format: cell-based. To be noted: human, KB cells (oral epidermoid carcinoma, ATCC CCL-17), starting concentration 20 μg/ml. The method, then:
(§1) Hirsutellones A, B and C were tested for cytotoxicity by incubating with Vero cells (African green monkey kidney cell line from American Type Culture Collection USA; ATCC # CCL-81). Each compound was dissolved in dimethyl sulfoxide and then diluted in the culture medium of the Vero cells (Eagle's Minimum Essential with 10% heat-inactivated fetal bovine serum and antibiotics). The Vero cells and the compound were incubated together in a 96-well microplate at a cell concentration of 1.9×10^4 cells/190 μl/well, in a CO2 incubator at 37° C. for 3 days.
(§2) The numbers of the cells in the wells were then determined by a staining method (Skehan, P., et al., J. Natl Cancer Inst., 82:1107-1112 (1990)). The cells were initially fixed by 50% cold trichloroacetic acid (TCA) at 4° C. for 30 minutes. The cells were then washed with water 4 times. After drying, the cells were stained with 0.05% sulforhodamine B in 1% acetic acid for 30 minutes, washed with ^1% acetic acid 4 times and dried at room temperature. Finally, 10 mM Tris-base pH 10 was added. The absorbance at 510 nm of test wells was measured by an ELISA microplate reader. The absorbance was proportionate to the number of the viable cells in the wells. The toxicity level of the compound was recorded as the concentration that rendered the number of viable cells to be less than half of the negative control wells, which contained the cells with DMSO but not the compound. Ellipticine was used as a positive control. The toxicity level of each compound against Vero cells was expressed as IC50.
(§3) Hirsutellones were also tested for cytotoxicity against multiple human cancer cell lines, to study the effects on human cells in vitro. The cancer cell lines included KB cells (oral epidermoid carcinoma; ATCC # CCL-17), BC cells (breast cancer) and NCI-H187 cells (lung cancer; ATCC # CRL-5804) The same protocol as that for the cytotoxicity assay against Vero cells was used, except for the starting compound concentration which was 20 μg/ml.
(In general: Sulforhodamine B stains cellular protein and so reports cell mass.)

Data set [2] can be described thus: Cytotoxicity against BC cells (sulforhodamine B staining). The class given is cell-based. To be noted: human, BC cells (breast cancer), starting concentration 20 μg/ml. How it is done: as §1, §2, §3
A short description of data set [3]: Cytotoxicity against NCI-H187 cells (sulforhodamine B staining). The class given is cell-based. As to conditions: human, NCI-H187 cells (lung cancer, ATCC CRL-5804), starting concentration 20 μg/ml. How it is done: as §1, §2, §3
The nature of data set [4]: Cytotoxicity against Vero cells (sulforhodamine B staining). The class given is cell-based. To be noted: African green monkey, Vero cells (ATCC CCL-81), 37° C. The method, then:
as §1, §2

For data set [5], the system named is Mycobacterium tuberculosis H37Ra strain (ATCC 25166). In words: Microplate Alamar Blue Assay (MABA), antituberculous activity. To be noted: M. tuberculosis H37Ra, two-fold serial dilution from 50 μg/ml. Format: cell-based. The method, then:
Preparation of Mycobacteria Mycobacterium tuberculosis H37Ra strain (ATCC 25166) was grown in 100 ml of Middlebrook 7H9 broth supplemented with 0.2% glycerol, 1.0 g/l of casitone, 10% OADC, and 0.05% Tween 80. The complete medium was referred to as 7H9GC-Tween. The bacteria were incubated in 500-ml flasks on a rotary shaker at 200 rpm and 37° C. until the optical density at 550 nm reached 0.4-0.5. The bacteria were washed twice with phosphate-buffered saline and then suspended in 20 ml of phosphate-buffered saline. The suspension was passed through an 8-μm-pore-size filter to eliminate clumps. The number of bacteria in the filtrates were counted by plating the bacteria in Middlebrook 7H10 agar. The filtrates were stored at −80° C.
Microplate Alamar Blue Assays (MABA) Anti-tuberculous testing was performed in a 96-well microplate as previously described (Collins, L. and Franzblau, S. G., Antimicrob. Agents Chemother., 41:1004-1009 (1997)). Outer perimeter wells were filled with sterile water to prevent dehydration of the test wells. Crude extracts were initially diluted with dimethyl sulfoxide, and then were diluted to a concentration of 400 μg/ml in Middlebrook 7H9 medium containing 0.2% V/V glycerol and 1.0 g/l casitone (7H9GC). The wells in rows B to G in columns 2, 4, 5, 6, 8, 9, 10 of the microplate were filled with 100 μl of 7H9GC. The wells in column 11 were inoculated with 200 μl of the medium to serve as media controls (M). Bacteria (only) controls (B) were set-up in column 10. One hundred microliters of each crude extract solution (400 μg/ml) were added to three wells in one row in columns 2 (or 6), 3 (or 7) and 4 (or 8). One hundred microliters were transferred from column 4 (or 8) to column 5 (or 9), the contents of the wells in column 5 (or 9) were mixed well and then 100 μl of mixed medium were discarded. The wells in columns 2 and 6 served as test sample controls.
Frozen bacterial inocula were diluted 1:200 in 7H9GC medium. One hundred microliters of the bacteria were added to the wells in rows B to G in columns 3 (or 7), 4 (or 8), 5 (or 9) and 10, resulting in final bacterial titers of approximately 5×10^4 CFU/ml. The wells in column 10 served as bacteria (only) controls (B). Final concentrations of extracts were 200, 100 and 50 μg/ml in columns 3 (or 7), 4 (or 8) and 5 (or 9), respectively.
The plates were sealed with Parafilm and were incubated at 37° C. for 5 days. At day 6 of incubation, 20 μl of Alamar Blue reagent and 12.5 μl of 20% Tween 80 were added to well B10 (B) and B11 (M). The plates were re-incubated at 37° C. for 24 h. […] If the B wells became pink by 24 h, reagent was added to the entire plate. If the well remained blue, the additional M and B wells were tested daily until a color change occurred at which time reagents were added to all remaining wells. The microplates were resealed with Parafilm and were then incubated at 37° C. The results were recorded 24 h after adding reagent.
Blue color in the well was interpreted as no growth, reflecting the activity of the test compound in the well. A pink color was scored as growth and reflected the lack of activity of the test compound. A few wells appeared violet after 24 h of incubation, but they invariably changed to pink after extra day of incubation and thus were scored as growth (while the adjacent blue wells remained blue). […]
(In general: Resazurin is reduced to fluorescent resorufin, in cell work by metabolically active cells.)

Converted amounts (≈) assume the structure as drawn.

The IC50 is the concentration that gives 50% inhibition. `Cc1c2ccncc2c(C)c2c1[nH]c1ccccc12` [Ellipticine, reference compound]: the concentration for half-maximal inhibition (IC50) at 3 days was 1.3 µg/mL (≈ 5.28 µM) in data set [1], 1.5 µg/mL (≈ 6.09 µM) in data set [2], 0.39 µg/mL (≈ 1.58 µM) in data set [3] and 0.4 µg/mL (≈ 1.62 µM) in data set [4].

Usually MIC stands for the lowest concentration found to suppress growth. Lower therefore signals a more susceptible organism. As for `C=CC1C=CC2C3CC(C)CCC3C3Oc4ccc(cc4)CC4C(=O)NC(=O)C4C(=O)C1C23` (centres unmarked) [Hirsutellone A], the IC50 at 3 days in data set [1] was > 20 µg/mL; in data set [2], > 20 µg/mL; in data set [3] it was > 20 µg/mL; in data set [4], > 50 µg/mL. In data set [5], this molecule yielded a minimal inhibitory concentration (MIC) of 0.78 µg/mL (≈ 1.75 µM).

Broadly, the melting point is the temperature, or range, at which the solid turns liquid. With `C=CC1C=CC2C3CC(C)CCC3C3Oc4ccc(cc4)CC4(O)CC(C(=O)N4)C(=O)C1C23` (centres unmarked) [Hirsutellone B], the melting point was 261 to 263 °C (dec.). Besides, in data set [1], the half-inhibitory concentration (IC50) at 3 days is > 20 µg/mL. The molecule further had an MIC in data set [5] of 0.78 µg/mL (≈ 1.74 µM). Also, in data set [2], the IC50 at 3 days was > 20 µg/mL. Moreover, in data set [3], the concentration for half-maximal inhibition (IC50) at 3 days came out at 6 µg/mL (≈ 13.4 µM). For the same molecule, in data set [4], the IC50 at 3 days was > 50 µg/mL.

Take `C=CC1C=CC2C3CC(C)CCC3C3Oc4ccc(cc4)CC4(O)NC(=O)C5(OC45)C(=O)C1C23` (centres unmarked) [Hirsutellone C]: the melting point was 234 to 235 °C (dec.). Moreover, the IC50 at 3 days in data set [1] is 4.6 µg/mL (≈ 9.97 µM). For the same molecule, 0.78 µg/mL (≈ 1.69 µM) was the least that counted as inhibitory in data set [5] (MIC). In data set [2], this molecule registered a concentration for half-maximal inhibition (IC50) at 3 days of 3.2 µg/mL (≈ 6.93 µM). Also, 8.3 µg/mL (≈ 18 µM) corresponded to half-maximal inhibition in data set [3] (IC50 at 3 days). The midpoint of inhibition in data set [4], the IC50 at 3 days, lay at 12 µg/mL (≈ 26 µM).

`NNC(=O)c1ccncc1` [isoniazid, reference compound] gave an MIC in data set [5] of 0.04 µg/mL (≈ 0.292 µM).

In the case of `NC[C@H]1O[C@H](O[C@H]2[C@H](O)[C@@H](O[C@H]3O[C@H](CO)[C@@H](O)[C@H](N)[C@H]3O)[C@H](N)C[C@@H]2N)[C@H](O)[C@@H](O)[C@@H]1O` [kanamycin, reference compound], in data set [5], inhibition of growth (MIC) required 2.5 µg/mL (≈ 5.16 µM).
